Reference: patent publication US5508450A, “Benzopyran derivatives” (Ono Pharmaceutical Co., Ltd., priority 1989, dated 1996)
Counter-ions that a name gives are not always drawn.

Test system: lipid peroxide formation in rat liver homogenate
Assay: Antioxiding effect: inhibitory activity against formation of peroxidized fat (lipid peroxide by TBA method)
Format: biochemical, Male Sprague Dawley rat
Conditions: 200 μM FeCl2, 10% rat liver homogenate, 37° C., 1 hr
Experimental: The antioxiding effect of the compounds of the present invention has confirmed by the screening system which examines inhibitory activity against formation of peroxidized fat mentioned below. Male Sprague Dawley rat was fasted for 12 hrs (overnight) before experiments, and was anesthetized with ether. Rat liver was perfused with ice-cold 0.9% NaCl via the portal vein, and promptly excised. 10% Liver homogenates were prepared in ice-cold 1.15% KCl. The reaction was started by adding 200 μM FeCl2 to the liver homogenate ([…]), and incubated at 37° C. for 1 hr. Lipid peroxide was measured by the TBA method according to the method of Ohkawa (See Analytical Biochemistry,95, 351 (1979)). The compounds of the present invention were added before incubation. And the efficacy thereof was examined and calculated IC50 values thereof.

Cc1c(C)c2c(c(C)c1O)CCC(C)(CCOC(=O)c1ccc(NC(=N)N)cc1)O2 (stereo not shown) [1 (a), 2-(6-hydroxy-2,5,7,8-tetramethyl-3,4-dihydro-2H-benzo[1,2-b]pyran-2-yl)ethyl4-quanidinobenzoate hydrochloride] and Cc1c(C)c2c(c(C)c1O)CCC(C)(CCOC(=O)c1ccc(CNC(=N)N)cc1)O2 (stereo not shown) [Example 1, 2-(6-hydroxy-2,5,7,8-tetramethyl-3,4-dihydro-2H-benzo[1,2-b]pyran-2-yl)ethyl 4-guanidinomethylbenzoate hydrochloride] are within 1.5-fold of each other in IC50: 0.54 µM for the first, 0.6 µM for the second.

Cc1c(C)c2c(c(C)c1O)CCC(C)(CCOC(=O)C1CCC(CNC(=N)N)CC1)O2 (stereo not shown) [1 (b), 2-(6-hydroxy-2,5,7,8-tetramethyl-3,4-dihydro-2H-benzo[1,2-b]pyran-2-yl)ethyl4-quanidinomethylcyclohexane carboxylatehydrochloride] and Cc1c(C)c2c(c(C)c1O)CCC(C)(CCNC(=O)C1CCC(CNC(=N)N)CC1)O2 (stereo not shown) [2 (a), N-[2-(6-hydroxy-2,4,7,8-tetramethyl-3,4-dihydro-2H-benzo[1,2-b]pyran-2-yl)-ethyl]-4-quanidinomethyl-cyclohexanecarboxamide hydrochloride] are the same in IC50: 0.78 µM for the first, 0.78 µM for the second.

Cc1c(C)c2c(c(C)c1O)CCC(C)(CCOC(=O)CCCCNC(=N)N)O2 (stereo not shown) [1 (c), 2-(6-hydroxy-2,5,7,8-tetramethyl-3,4-dihydro-2H-benzo[1,2-b]pyran-2-yl)ethyl5-quanidinopentanoate hydrochloride] and Cc1c(C)c2c(c(C)c1O)CCC(C)(CCOC(=O)CCc1ccc(NC(=N)N)cc1)O2 (stereo not shown) [1 (g), 2-(6-hydroxy-2,5,7,8-tetramethyl-3,4-dihydro-2H-benzo[1,2-b]pyran-2-yl)ethyl3-(4-quanidinophenyl)-propionate hydrochloride] are within 1.5-fold of each other in IC50: 0.8 µM for the first, 0.9 µM for the second.

First: Cc1c2c(c3ccccc3c1O)OC(C)(CCOC(=O)c1ccc(NC(=N)N)cc1)CC2 (stereo not shown) [1 (e), 2-(2,5-dimethyl-6-hydroxy-3,4-dihydro-2H-naphtho[1,2-b]pyran-2-yl)ethyl 4-quanidinobenzoatehydrochloride]
Second: Cc1c2c(c3ccccc3c1O)OC(C)(CCOC(=O)c1cccc(NC(=N)N)c1)CC2 (stereo not shown) [1 (k), 2-(2,5-dimethyl-6-hydroxy-3,4-dihydro-2H-naphtho[1,2-b]pyran-2-yl)ethyl 3-quanidinobenzoatehydrochloride]
The IC50 of the first is 2.8-fold lower: 0.16 µM for the first, 0.44 µM for the second.

Cc1c2c(c3ccccc3c1O)OC(C)(CCOC(=O)/C=C/c1ccc(NC(=N)N)cc1)CC2 (stereo not shown) [1 (l), 2-(2,5-dimethyl-6-hydroxy-3,4-dihydro-2H-naphtho[1,2-b]pyran-2-yl)ethyl 4-quanidinocinnamatehydrochloride] and Cc1c(C)c2c(c(C)c1O)CCC(C)(CCNC(=O)c1ccc(CNC(=N)N)cc1)O2 (stereo not shown) [2 (b), N-[2-(6-hydroxy-2,4,7,8-tetramethyl-3,4-dihydro-2H-benzo[1,2-b]pyran-2-yl)-ethyl]-4-quanidinomethyl-benzamide hydrochloride] are within 1.5-fold of each other in IC50: 0.38 µM for the first, 0.47 µM for the second.

Test system: Lysozyme (dimer formation with fructose)
Assay: Inhibitory activity on Maillard reaction: formation of lysozyme dimer (lysozyme + fructose, SDS-PAGE, densitometer)
Format: biochemical
Conditions: lysozyme 10 mg/ml, fructose 100 mM, 0.2M sodium phosphate buffer pH 7.4, 37° C., 3 days
Experimental: The inhibitory activity on Maillard reaction of the compounds of the present invention has confirmed by the screening system mentioned below. Lysozyme (10 mg/ml) and fructose (100 mM) were dissolved in 0.2M sodium phosphatic buffer solution (PH 7.4). The solution was incubated at a temperature of 37° C. for 3 days. A given volume of the reaction solution was separated using SDS-PAGE by the electrophoresis. After the electrophoresis, the SDS-PAGE was dyed by 0.2% Coomassie Brilliant Blue R-250 and then the dimer was determined by densitometer. The compounds of the present invention were added before incubation and the inhibitory activity of them against the formation of the dimer was examined in various concentrations and IC50 values were calculated.

First: Cc1c(C)c2c(c(C)c1O)CCC(C)(CCOC(=O)c1ccc(NC(=N)N)cc1)O2 (stereo not shown) [1 (a), 2-(6-hydroxy-2,5,7,8-tetramethyl-3,4-dihydro-2H-benzo[1,2-b]pyran-2-yl)ethyl4-quanidinobenzoate hydrochloride]
Second: Cc1c2c(c3ccccc3c1O)OC(C)(CCOC(=O)c1ccc(NC(=N)N)cc1)CC2 (stereo not shown) [1 (e), 2-(2,5-dimethyl-6-hydroxy-3,4-dihydro-2H-naphtho[1,2-b]pyran-2-yl)ethyl 4-quanidinobenzoatehydrochloride]
The IC50 of the first is 4-fold higher: 200 µM for the first, 50 µM for the second.

First: Cc1c(C)c2c(c(C)c1O)CCC(C)(CCCCCCOc1ccc(NC(=N)N)cc1)O2 (stereo not shown) [29 (a), 4-guanidinophenyl 6-(6-hydroxy-2,5,7,8-tetramethyl-3,4-dihydro-2H-benzo[1,2-b]pyran-2-yl)-n-hexyl ether hydrochloride]
Second: Cc1c(C)c2c(c(C)c1O)CCC(C)(CCOCc1ccc(CNC(=N)NN)cc1)O2 (stereo not shown) [Example 4, 4-(3-aminoguamidinomethyl)benzyl 2-(6-hydroxy-2,5,7,8-tetramethyl-3,4-dihydro-2H-benzo[1,2-b]pyran-2-yl)ethyl ether hydroiodide]
The IC50 of the first is 7.5-fold lower: 20 µM for the first, 150 µM for the second.

Cc1c(C)c2c(c(C)c1O)CCC(C)(CCOc1ccc(NC(=N)N)cc1)O2 (stereo not shown) [Example 5, 4-guanidinophenyl 2-(6-hydroxy-2,5,7,8-tetramethyl-3,4-dihydro-2H-benzo[1,2-b]pyran-2-yl)ethyl ether hydrochloride] and Cc1c(C)c2c(c(C)c1O)CCC(C)(CCCCNC(=N)NN)O2 (stereo not shown) [Example 8, 1-amino-3-[4-(6-hydroxy-2,5,7,8-tetramethyl-3,4-dihydro-2H-benzo[1,2-b]pyran-2-yl)butyl]guanidine hydroiodide] are within 1.5-fold of each other in IC50: 320 µM for the first, 300 µM for the second.

First: Cc1c(C)c2c(c(C)c1O)CCC(C)(CCCCOc1ccc(NC(=O)/C=C/c3ccc(NC(=N)N)cc3)cc1)O2 (stereo not shown) [Example 9, N-[4-[4-(6-hydroxy-2,5,7,8-tetramethyl-3,4-dihydro-2H-benzo[1,2-b]pyran-2-yl)butoxy]phenyl]-4-guanidinocinnamamide hydrochloride]
Second: Cc1c(C)c2c(c(C)c1O)CCC(C)(CCCCOc1ccc(NC(=N)N)cc1)O2 (stereo not shown) [Example 10, 4-guanidinophenyl 4-(6-hydroxy-2,5,7,8-tetramethyl-3,4-dihydro-2H-benzo[1,2-b]pyran-2-yl)butyl ether hydrochloride]
The IC50 of the first is 12-fold lower: 6.2 µM for the first, 75 µM for the second. The first is the more potent here.

Cc1c(C)c2c(c(C)c1O)CCC(C)(CCCCNC(=O)Nc1cccc(NC(=N)N)c1)O2 (stereo not shown) [Example 12, 1-[4-(6-hydroxy-2,5,7,8-tetramethyl-3,4-dihydro-2H-benzo[1,2-b]pyran-2-yl)butyl]-3-(3-guanidinophenyl)urea hydrochloride] and CCOC(=O)c1cc(NC(=N)N)cc(C(=O)NCCC2(C)CCc3c(C)c(O)c(C)c(C)c3O2)c1 (stereo not shown) [Example 14, N-[2-(6-hydroxy-2,5,7,8-tetramethyl-3,4-dihydro-2H-benzo[1,2-b]pyran-2-yl)ethyl]-3-ethoxycarbonyl-5-guanidinobenzamide hydrochloride] are within 1.5-fold of each other in IC50: 200 µM for the first, 220 µM for the second.

Going from CCOC(=O)c1cc(NC(=N)N)ccc1OCCC1(C)CCc2c(C)c(O)c(C)c(C)c2O1 (stereo not shown) [Example 15, 2-ethoxycarbonyl-4-guanidinophenyl 2-(6-hydroxy-2,5,7,8-tetramethyl-3,4-dihydro-2H-benzo[1,2-b]pyran-2-yl)ethyl ether hydrochloride] to CCOC(=O)c1cc(NC(=N)N)cc(C(=O)Nc2ccc(OCCC3(C)CCc4c(C)c(O)c(C)c(C)c4O3)cc2)c1 (stereo not shown) [Example 17, N-[4-[2-(6-hydroxy-2,5,7,8-tetramethyl-3,4-dihydro-2H-benzo[1,2-b]pyran-2-yl)ethoxy]phenyl]-3-ethoxycarbonyl-5-guanidinobenzamide hydrochloride], the IC50 falls from 220 µM to 13 µM (17-fold). The second is the more potent here.

Going from Cc1c(C)c2c(c(C)c1O)CCC(C)(CCOc1ccc(CCCNC(=N)NN)cc1)O2 (stereo not shown) [Example 19, 4-[3-(3-aminoguanidino)propyl]phenyl 2-(6-hydroxy-2,5,7,8-tetramethyl-3,4-dihydro-2H-benzo[1,2-b]pyran-2-yl)ethyl ether hydroiodide] to Cc1c(C)c2c(c(C)c1O)CCC(C)(CCOCCNC(=O)/C=C/c1ccc(NC(=N)N)cc1)O2 (stereo not shown) [Example 21, N-[2-[2-(6-hydroxy-2,5,7,8-tetramethyl-3,4-dihydro-2H-benzo[1,2-b]pyran-2-yl)ethoxy]ethyl]-4-guanidinocinnamamide hydrochloride], the IC50 rises from 56 µM to 220 µM (3.9-fold). The first is the more potent here.

Going from Cc1c(C)c2c(c(C)c1O)CCC(C)(CCCCNC(=O)/C=C/c1ccc(NC(=N)N)cc1)O2 (stereo not shown) [Example 22, N-[4-(6-hydroxy-2,5,7,8-tetramethyl-3,4-dihydro-2H-benzo[1,2-b]pyran-2-yl)butyl]-4-guanidinocinnamamide hydrochloride] to Cc1c(C)c2c(c(C)c1O)CCC(C)(CC=CCCCCNC(=N)NN)O2 (stereo not shown) [Example 23, 2-[7-(3-aminoguanidino)hept-2-enyl]-6-hydroxy-2,5,7,8-tetramethyl-3,4-dihydro-2H-benzo[1,2,-b]pyran hydroiodide], the IC50 rises from 48 µM to 130 µM (2.7-fold).

First: Cc1c(C)c2c(c(C)c1O)CCC(C)(CCN(C)C(=O)/C=C/c1ccc(NC(=N)N)cc1)O2 (stereo not shown) [Example 24, N-methyl-N-[2-(6-hydroxy-2,5,7,8-tetramethyl-3,4-dihydro2H-benzo[1,2-b]pyran-2-yl)ethyl]-4-guanidinocinnamamide hydrochloride]
Second: Cc1c(C)c2c(c(C)c1O)CCC(C)(CCOCCNC(=N)NN)O2 (stereo not shown) [Example 26, 2-(3-aminoguanidino)ethyl 2-(6-hydroxy-2,5,7,8-tetramethyl-3,4-dihydro-2H-benzo[1,2-b]pyran-2-yl)ethyl ether hydrochloride]
The IC50 of the first is 1.5-fold lower: 180 µM for the first, 270 µM for the second. The first is the more potent here.

Cc1c(C)c2c(c(C)c1O)CCC(C)(CCOc1ccc(CCOc3ccc(NC(=N)N)cc3)cc1)O2 (stereo not shown) [Example 27, 4-guanidinophenyl 2-[4-[2-(6-hydroxy-2,5,7,8-tetramethyl-3,4-dihydro-2H-benzo[1,2-b]pyran-2-yl)ethoxy]phenyl]ethyl ether hydrochloride] and Cc1c(C)c2c(c(C)c1O)CCC(C)(CCCCCCSc1ccc(NC(=N)N)cc1)O2 (stereo not shown) [Example 29, 4-guanidinophenyl 6-(6-hydroxy-2,5,7,8-tetramethyl-3,4-dihydro-2H-benzo[1,2-b]pyran-2-yl)-n-hexyl thioether hydrochloride] are within 1.5-fold of each other in IC50: 5.8 µM for the first, 7.5 µM for the second.

“N-[4-[2-(6-hydroxy-2,5,7,8-tetramethyl-3,4-dihydro-2H-benzo[1,2-b]pyran-2-yl)-ethoxy]phenyl]-3-guanidino-cinnamamide hydrochloride [7 (b)]” showed an IC50 of 12 µM.
